This is an account of results in patent publication US10238623B2, “C14-hydroxyl esterified amino acid derivative of triptolide, and preparation method and use thereof” (HANGZHOU WEBEN PHARMACEUTICALS INC, priority 2015, dated 2019).

Usually IC50 stands for the midpoint of a concentration-inhibition curve.

One data set deals with Jurkat. Description: MTT growth inhibition, Jurkat cells, 72 h. It is filed as cell-based, human. The protocol:
(§1) 5000 well-grown leukemia cells or normal human blood cells were taken and seeded into wells of a 96-well cell culture plate. The medium was 1640 cell medium containing 10% fetal bovine serum. 14-D-Valine-TPL with different concentrations was added, and after being uniformly mixed, the plate was placed in a carbon dioxide (5% CO2) cell incubator, and incubated at 37° C. for 72 hours. The concentration of live cells was then determined using the MTT assay. In this experiment, the cell viability in the control group (without the compound treatment) was set to be 100%, and the cell viability (%) after the action of the compound the half maximal growth inhibitory concentration of leukemia cells at 72 hours (IC50 value at 72 hours) and the therapeutic window index were calculated. Therapeutic window index=IC50 value of normal blood cells/IC50 value of leukemia cells. […] A larger therapeutic window indicates a better selectivity of the compound for tumor cells.
(§2) 5000 well-grown leukemia cells were taken and seeded into wells of a 96-well cell culture plate. The medium was 1640 cell medium containing 10% fetal bovine serum. 14-D-Valine-TPL with different concentrations was added, and after being uniformly mixed, the plate was placed in a carbon dioxide (5% CO2) cell incubator, and incubated at 37° C. for 72 hours. The concentration of live cells was then determined using the MTT assay. In this experiment, the cell viability in the control group (without the compound treatment) was set to be 100%, and the cell viability (%) after the action of the compound and the half maximal growth inhibitory concentration of leukemia cells at 72 hours (IC50 value at 72 hours) were calculated.
as §2, with “well-grown lymphocytes” for “well-grown leukemia cells”

A further data set deals with Molt-4. The data set can be described thus: MTT growth inhibition, Molt-4 cells, 72 h. Type of data set: cell-based, human. The settings on record: Homo sapiens, MOLT-4, 72 h. How it is done: as §1, §2
as §2, with “well-grown lymphocytes” for “well-grown leukemia cells”

A further data set concerns THP-1. The data set can be described thus: MTT growth inhibition, THP-1 cells, 72 h. Type of data set: cell-based. The settings on record: Homo sapiens, THP-1, MTT. How it is done:
as §2

A further data set has as its system U937. Description: MTT growth inhibition, U937 cells, 72 h. Type of data set: cell-based. The settings on record: Homo sapiens, U-937. How it is done:
as §2

Data set [1] in a line: Body weight and organ examination of tumour-bearing mice. The conditions noted are these: for Body weight: mice bearing KG-1a and THP-1, 14 days, individual mice, listed as DV. It is filed as in vivo, NOD/SCID mice. The protocol: (§3) 7-week old female NOD/SCID mice were taken and inoculated subcutaneously with 1×10^7 cells (0.2 ml) per mouse in axilla, with human acute myelogenous leukemia KG-1a cells on the left and human acute monocytic leukemia THP-1 cells on the right. When tumors grew to a tumor size of around 0.5 cm, the mice were randomized into groups with 3 mice each. An equivalent amount of PBS was used for the control group, and the 14-D-Valine-TPL group was divided into two groups with 0.2 mg/kg body weight and 0.4 mg/kg body weight: intragastric administration 2 times a day (one at 8 a.m. and one at 4 p.m.) for consecutive 14 days of treatment. An observation was made for total 30 days, during which the conditions of the mice such as tumor size, weight, activity, diet, and the like were measured. At the end of the experiment, the mice were sacrificed, tumor tissues were taken and the tumors were weighed, and major organs and tissues of the mice such as liver, spleen, heart, lung, large intestine, small intestine, and the like were examined.
as §3, with “the left.” for “the left and human acute monocytic leukemia THP-1 cells on the right.”, “around 50-100 mm^3,” for “around 0.5 cm,”, “the TPL-LLV” for “the 14-D-Valine-TPL”, “with 0.23” for “with 0.2”, “and 0.46” for “and 0.4”, “intragastric administration,” for “intragastric administration”
as §3, with “the left.” for “the left and human acute monocytic leukemia THP-1 cells on the right.”, “around 50-100 mm^3,” for “around 0.5 cm,”, “the TPL-DLV” for “the 14-D-Valine-TPL”, “with 0.23” for “with 0.2”, “and 0.46” for “and 0.4”, “intragastric administration,” for “intragastric administration”
7-week old female NOD/SCID mice were taken and inoculated subcutaneously with 1×10^7 cells (0.2 ml) per mouse in axilla, with human acute myelogenous leukemia KG-1a cells on the left. When tumors grew to a tumor size of around 50-100 mm^3, the mice were randomized into groups with 3 mice each. An equivalent amount of PBS was used for the control group, and the TPL-DLV group was divided into two groups with 0.32 mg/kg body weight and 0.64 mg/kg body weight: intragastric administration, 2 times a day (one at 8 a.m. and one at 4 p.m.) for consecutive 14 days of treatment. An observation was made for total 30 days, during which the conditions of the mice such as tumor size, weight, activity, diet, and the like were measured. At the end of the experiment, the mice were sacrificed, tumor tissues were taken and the tumors were weighed, and major organs and tissues of the mice such as liver, spleen, heart, lung, large intestine, small intestine, and the like were examined. […]

The target of a further data set is T1, XPB (Homo sapiens, UniProt P19447).
T1 construct: endogenous in cells; host or cells: THP-1
Description: Immunoblot of XPB level in THP-1 cells, 48 h. It is filed as cell-based. The conditions noted are these: 160 nM. The protocol:
Well-grown leukemia cells were taken and seeded into wells of a 6-well cell culture plate, with a density of 1×10^6/ml. The medium was 1640 cell medium containing 10% fetal bovine serum. 14-D-Valine-TPL with different concentrations was added, and after being uniformly mixed, the plate was placed in a carbon dioxide (5% CO2) cell incubator, and incubated at 37° C. for 48 hours. Cellular proteins were then extracted, and the immunoblot technique was used to detect the expression levels of XPB and Pol II.
In general terms: A western blot detects proteins with antibodies after separation by electrophoresis.

SMILES strings stand for the structures. Values joined by “and” are separate entries in the source; they are usually repeats but may differ in a detail not shown here. Equal values may be shown once.

T1 sequence (P19447 whole entry): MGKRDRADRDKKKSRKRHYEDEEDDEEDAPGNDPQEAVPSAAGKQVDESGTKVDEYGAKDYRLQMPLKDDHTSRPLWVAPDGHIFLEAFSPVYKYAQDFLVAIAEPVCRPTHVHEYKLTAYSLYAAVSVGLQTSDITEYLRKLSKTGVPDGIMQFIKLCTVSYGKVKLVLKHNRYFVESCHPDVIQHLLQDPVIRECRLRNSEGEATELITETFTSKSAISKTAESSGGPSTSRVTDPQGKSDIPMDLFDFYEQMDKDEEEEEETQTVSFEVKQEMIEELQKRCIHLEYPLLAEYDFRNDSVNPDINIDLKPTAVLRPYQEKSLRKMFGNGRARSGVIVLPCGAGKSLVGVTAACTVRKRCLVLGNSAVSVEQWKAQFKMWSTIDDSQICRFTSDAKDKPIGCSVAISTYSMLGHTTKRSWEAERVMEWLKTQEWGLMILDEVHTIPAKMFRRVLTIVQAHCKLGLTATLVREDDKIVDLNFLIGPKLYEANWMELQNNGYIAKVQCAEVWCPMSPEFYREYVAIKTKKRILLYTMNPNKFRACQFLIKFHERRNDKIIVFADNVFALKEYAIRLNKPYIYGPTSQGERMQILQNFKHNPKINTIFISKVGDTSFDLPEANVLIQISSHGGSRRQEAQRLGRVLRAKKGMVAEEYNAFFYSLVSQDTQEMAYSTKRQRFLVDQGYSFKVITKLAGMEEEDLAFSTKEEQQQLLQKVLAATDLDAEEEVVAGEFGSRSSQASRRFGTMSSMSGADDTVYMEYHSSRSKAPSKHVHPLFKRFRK

On to `CC(C)[C@@H](N)C(=O)O[C@@H]1[C@@]2(C(C)C)O[C@H]2[C@@H]2O[C@]23[C@]12O[C@H]2C[C@H]1C2=C(CC[C@@]13C)C(=O)OC2` [14-D-Valine-TPL, 14-Dextro-Valine-Triptolide], for which the IC50 in the data set on Jurkat (Homo sapiens, Jurkat, 72 h) is 36.3 nM; in the data set with Molt-4 it was 10.8 nM; with THP-1, 16 nM; with U937, 60 nM. For the same molecule, in the data set with Jurkat (IC50 of normal blood cells/IC50 of Jurkat), the Therapeutic window came out at 5.54. Also, in data set [1] (dose of 0.4 mg per kilogram of the body weight), the “weight loss in the mice (in words)” value was “no significant weight losses”. Moreover, the Body weight in data set [1] (0.2 mg/kg intragastric 2 times a day, mice bearing KG-1a xenografts) is 18.5 g and 20.2 g and 19.9 g and 18.1 g and 19.0 g and 20.4 g; in data set [1] (0.2 mg/kg intragastric 2 times a day, mice bearing THP-1 xenografts), 18.5 g and 20.2 g and 19.9 g and 18.1 g and 19.0 g and 20.4 g; in data set [1] (0.4 mg/kg intragastric 2 times a day, mice bearing KG-1a xenografts), 20.4 g and 21.0 g and 21.1 g and 21.4 g and 20.8 g and 19.1 g; in data set [1] (0.4 mg/kg intragastric 2 times a day, mice bearing THP-1 xenografts), 20.4 g and 21.0 g and 21.1 g and 21.4 g and 20.8 g and 19.1 g. Besides, the “anatomical examination of major organs (heart, lung, liver, spleen, large intestine, small intestine)” value in data set [1] (mice of Example 9) is on record as “no significant abnormalities”. At XPB, the “level of XPB (immunoblot)” value is “significantly inhibited”.
